The test system of this test is MOLM-13 cells. Briefly: Viability assay in MOLM-13 cells (CellTiter-Glo 2.0). It counts as cell-based, human. The settings on record: read-out: MOLM-13 IC50 (cell viability). For orientation: Cellular ATP, detected with luciferase, serves as a proxy for viable cell number.
[1] abbreviates: MOLM-13 human AML cells, 72 hours, CellTiter-Glo 2.0.

Where two headings read alike, the source gives them in different places.

Description: Effects of test compounds on the proliferation and viability of human AML cells was evaluated using the MOLM-13 cell line (AddexBio Technologies cat. no. C0003003). […] Test compounds or controls (Bortezomib or DMSO) diluted in 2% DMSO/media were added to each well for final concentrations of 0.2% DMSO and 0.1-1 μM Bortezomib. The cells were incubated for 72 hours at 37° C. and 5% CO2. At the end of the 72 hour incubation, plates were removed from the incubator, cooled to room temperature and equal volume of CellTiter-Glo 2.0 (Promega) added to each well. After mixing and incubating the plate at room temperature for 10 minutes the luminescence was read using a plate reader. […] Concentration-response-curves and IC50 values were generated using Collaborative Drug Discovery software.

In general, IC50 refers to the concentration that gives 50% inhibition. With `CCOc1cncc2c(=O)n(Cc3cn4cc(C)ccc4n3)ccc12` [Compound 3, 5-ethoxy-2-((6-methylimidazo[1,2-a]pyridin-2-yl)methyl)-2,7-naphthyridin-1(2H)-one], the IC50 under setting [1] was above 10 µM.

With `Cc1ccc2nc(Cn3ccc4c(N5CC(c6ccccc6)C5)cncc4c3=O)cn2c1` [Compound 7, 2-((6-methylimidazo[1,2-a]pyridin-2-yl)methyl)-5-(3-phenylazetidin-1-yl) 2,7-naphthyridin-1(2H)-one], under setting [1], the 50% inhibitory concentration (IC50) is above 10 µM. As to `Cc1ccc2nc(Cn3ccc4c(N5CCC5)cncc4c3=O)cn2c1` [Compound 9, 5-(azetidin-1-yl)-2-((6-methylimidazo[1,2-a]pyridin-2-yl)methyl)-2,7-naphthyridin-1(2H)-one], the IC50 (Homo sapiens, MOLM-13, 72 h) was above 10 µM. In the case of `Cc1ccc2nc(Cn3ccc4c(N5CCCCC5)cncc4c3=O)cn2c1` [Compound 10, 2-((6-methylimidazo[1,2-a]pyridin-2-yl)methyl)-5-(piperidin-1-yl)-2,7-naphthyridin-1(2H)-one], under setting [1], the IC50 was above 10 µM. `Cc1ccc2nc(Cn3ccc4c(C5CC5)cncc4c3=O)cn2c1` [Compound 11, 5-cyclopropyl-2-((6-methylimidazo[1,2-a]pyridin-2-yl)methyl)-2,7-naphthyridin-1(2H)-one]: the IC50 under setting [1] is above 10 µM. Turning to `Cc1ccc2nc(Cn3ccc4c(-c5cc[nH]n5)cncc4c3=O)cn2c1` [Compound 15, 2-((6-methylimidazo[1,2-a]pyridin-2-yl)methyl)-5-(1H-pyrazol-3-yl)-2,7-naphthyridin-1(2H)-one], the half-inhibitory concentration (IC50) under setting [1] was above 10 µM. The same measure, in the same setting: then `Cc1ccc2nc(Cn3ccc4c(-c5cccnc5)cncc4c3=O)cn2c1` [Compound 17, 2-((6-methylimidazo[1,2-a]pyridin-2-yl)methyl)-5-(pyridin-3-yl)-2,7-naphthyridin-1(2H)-one], with above 10 µM; and `CNC(=O)c1ccc(-c2cncc3c(=O)n(Cc4cn5cc(C)ccc5n4)ccc23)cc1` [Compound 26, N-methyl-4-(7-((6-methylimidazo[1,2-a]pyridin-2-yl)methyl)-8-oxo-7,8-dihydro-2,7-naphthyridin-4-yl)benzamide], with above 10 µM. Same read-out and setting: then `Cc1ccc2nc(Cn3ccc4c(-c5ccccc5C#N)cncc4c3=O)cn2c1` [Compound 28, 2-(7-((6-methylimidazo[1,2-a]pyridin-2-yl)methyl)-8-oxo-7,8-dihydro-2,7-naphthyridin-4-yl)benzonitrile], with above 10 µM.

As to `Cc1ccc2nc(Cn3ccc4c(-c5c(F)cccc5F)cncc4c3=O)cn2c1` [Compound 29, 5-(2,6-difluorophenyl)-2-((6-methylimidazo[1,2-a]pyridin-2-yl)methyl)-2,7-naphthyridin-1(2H)-one], the IC50 under setting [1] is above 10 µM.

With `Cc1ccc2nc(Cn3ccc4c(-c5c(C)cccc5F)cncc4c3=O)cn2c1` [Compound 30, 5-(2-fluoro-6-methylphenyl)-2-((6-methylimidazo[1,2-a]pyridin-2-yl)methyl)-2,7-naphthyridin-1(2H)-one], the IC50 under setting [1] is above 10 µM.

Take `CC(=O)Nc1ccc(-c2cncc3c(=O)n(Cc4cn5cc(C)ccc5n4)ccc23)cn1` [Compound 38, N-(5-(7-((6-methylimidazo[1,2-a]pyridin-2-yl)methyl)-8-oxo-7,8-dihydro-2,7-naphthyridin-4-yl)pyridin-2-yl)acetamide]: the IC50 under setting [1] was above 10 µM. Take `Cc1ccc2nc(Cn3ccc4c(C#CC5CC5)cncc4c3=O)cn2c1` [Compound 46, 5-(cyclopropylethynyl)-2-((6-methylimidazo[1,2-a]pyridin-2-yl)methyl)-2,7-naphthyridin-1(2H)-one]: the IC50 under setting [1] is above 10 µM.

Consider `Cc1ccc2nc(Cn3cc(C)c4ccncc4c3=O)cn2c1` [Compound 49, 4-methyl-2-((6-methylimidazo[1,2-a]pyridin-2-yl)methyl)-2,7-naphthyridin-1(2H)-one], for which the IC50 under setting [1] lay in the range of 1 to 10 µM.

In the case of `O=c1c2cnccc2ccn1Cc1cn2cc(CNCc3ccccc3)ccc2n1` [Compound 69, 2-((6-((benzylamino)methyl)imidazo[1,2-a]pyridin-2-yl)methyl)-2,7-naphthyridin-1(2H)-one], for the setting “Homo sapiens, MOLM-13, 72 h”, the IC50 is above 10 µM. As for `O=c1c2cnccc2ccn1Cc1cn2cc(CNCC3CCCCC3)ccc2n1` [Compound 71, 2-((6-(((cyclohexylmethyl)amino)methyl)imidazo[1,2-a]pyridin-2-yl)methyl)-2,7-naphthyridin-1(2H)-one], the IC50 under setting [1] was above 10 µM. As to `O=c1c2cncc(-c3ccccc3)c2ccn1Cc1cn2cc(CNCc3ccccc3)ccc2n1` [Compound 72, 2-((6-((benzylamino)methyl)imidazo[1,2-a]pyridin-2-yl)methyl)-5-phenyl-2,7-naphthyridin-1(2H)-one], under setting [1], the IC50 lay in the range of 1 to 10 µM. Still for that read-out and setting: as for `CC(C)(C)CNCc1ccc2nc(Cn3ccc4c(-c5ccccc5)cncc4c3=O)cn2c1` [Compound 73, 2-((6-((neopentylamino)methyl)imidazo[1,2-a]pyridin-2-yl)methyl)-5-phenyl-2,7-naphthyridin-1(2H)-one], the figure is 1 to 10 µM. On the same count and under the same terms, as for `O=c1c2cncc(-c3ccccc3)c2ccn1Cc1cn2cc(CNCC3(O)CCC3)ccc2n1` [Compound 74, 2-((6-((((1-hydroxycyclobutyl)methyl)amino)methyl)imidazo[1,2-a]pyridin-2-yl)methyl)-5-phenyl-2,7-naphthyridin-1(2H)-one], the figure is above 10 µM. On the same count and under the same terms, then `O=c1c2cncc(-c3ccccc3)c2ccn1Cc1cn2cc(CNCC3(F)CCC3)ccc2n1` [Compound 75, 2-((6-((((1-fluorocyclobutyl)methyl)amino)methyl)imidazo[1,2-a]pyridin-2-yl)methyl)-5-phenyl-2,7-naphthyridin-1(2H)-one], with above 10 µM; and `O=c1c2cncc(-c3ccccc3)c2ccn1Cc1cn2cc(CNCC3CCCC3)ccc2n1` [Compound 76, 2-((6-(((cyclopentylmethyl)amino)methyl)imidazo[1,2-a]pyridin-2-yl)methyl)-5-phenyl-2,7-naphthyridin-1(2H)-one], with 1 to 10 µM; and `O=c1c2cncc(-c3ccccc3)c2ccn1Cc1cn2cc(CNCC3CCCCC3)ccc2n1` [Compound 77, 2-((6-(((cyclohexylmethyl)amino)methyl)imidazo[1,2-a]pyridin-2-yl)methyl)-5-phenyl-2,7-naphthyridin-1(2H)-one], with 1 to 10 µM. Turning to `O=c1c2cncc(-c3ccccc3)c2ccn1Cc1cn2cc(CNC3(c4ccccc4)CC3)ccc2n1` [Compound 78, 5-phenyl-2-((6-(((1-phenylcyclopropyl)amino)methyl)imidazo[1,2-a]pyridin-2-yl)methyl)-2,7-naphthyridin-1(2H)-one], the half-inhibitory concentration (IC50) (Homo sapiens, MOLM-13, 72 h) was in the range of 1 to 10 µM.

As for `O=c1c2cncc(-c3ccccc3)c2ccn1Cc1cn2cc(CNCC3CC(F)C3)ccc2n1` (stereo not shown) [Compound 79, 2-((6-((((3-fluorocyclobutyl)methyl)amino)methyl)imidazo[1,2-a]pyridin-2-yl)methyl)-5-phenyl-2,7-naphthyridin-1(2H)-one], the concentration for half-maximal inhibition (IC50) under setting [1] fell in the range of 1 to 10 µM. For the compound `O=c1c2cncc(-c3ccccc3)c2ccn1Cc1cn2cc(CNC3(c4ccccc4)CCC3)ccc2n1` [Compound 80, 5-phenyl-2-((6-(((1-phenylcyclobutyl)amino)methyl)imidazo[1,2-a]pyridin-2-yl)methyl)-2,7-naphthyridin-1(2H)-one], the 50% inhibitory concentration (IC50) under setting [1] is 1 to 10 µM. Still for that read-out and setting: as for `CC(C)(NCc1ccc2nc(Cn3ccc4c(-c5ccccc5)cncc4c3=O)cn2c1)c1ccccc1` [Compound 81, 5-phenyl-2-((6-(((2-phenylpropan-2-yl)amino)methyl)imidazo[1,2-a]pyridin-2-yl)methyl)-2,7-naphthyridin-1(2H)-one], the figure is 1 to 10 µM; as for `O=c1c2cncc(-c3ccccc3)c2ccn1Cc1cn2cc(CNC(CO)c3ccccc3)ccc2n1` (stereo not shown) [Compound 82, 2-((6-(((2-hydroxy-1-phenylethyl)amino)methyl)imidazo[1,2-a]pyridin-2-yl)methyl)-5-phenyl-2,7-naphthyridin-1(2H)-one], 1 to 10 µM. In the case of `O=c1c2cncc(-c3ccccc3)c2ccn1Cc1cn2cc(CNCc3ccc(Cl)cc3)ccc2n1` [Compound 84, 2-((6-(((4-chlorobenzyl)amino)methyl)imidazo[1,2-a]pyridin-2-yl)methyl)-5-phenyl-2,7-naphthyridin-1(2H)-one], the concentration for half-maximal inhibition (IC50) (Homo sapiens, MOLM-13, 72 h) was in the range of 1 to 10 µM. Take `CC1CCC(CNCc2ccc3nc(Cn4ccc5c(-c6ccccc6)cncc5c4=O)cn3c2)CC1` (stereo not shown) [Compound 85, 2-((6-((((4-methylcyclohexyl)methyl)amino)methyl)imidazo[1,2-a]pyridin-2-yl)methyl)-5-phenyl-2,7-naphthyridin-1(2H)-one]: the IC50 under setting [1] was 1 to 10 µM.

Take `Cc1ccc(CNCc2ccc3nc(Cn4ccc5c(-c6ccccc6)cncc5c4=O)cn3c2)cc1` [Compound 86, 2-((6-(((4-methylbenzyl)amino)methyl)imidazo[1,2-a]pyridin-2-yl)methyl)-5-phenyl-2,7-naphthyridin-1(2H)-one]: under setting [1], the IC50 was 1 to 10 µM. Consider `CC(=O)Nc1ccc(-c2cncc3c(=O)n(Cc4cn5cc(CNCC6CC(F)C6)ccc5n4)ccc23)cn1` (stereo not shown) [Compound 87, N-(5-(7-((6-((((3-fluorocyclobutyl)methyl)amino)methyl)imidazo[1,2-a]pyridin-2-yl)methyl)-8-oxo-7,8-dihydro-2,7-naphthyridin-4-yl)pyridin-2-yl)acetamide], for which, under setting [1], the IC50 was in the range of 1 to 10 µM. `O=c1c2cncc(C3CC3)c2ccn1Cc1cn2cc(CNCC3CCC3)ccc2n1` [Compound 88, 2-((6-(((cyclobutylmethyl)amino)methyl)imidazo[1,2-a]pyridin-2-yl)methyl)-5-cyclopropyl-2,7-naphthyridin-1(2 h)-one]: the IC50 under setting [1] fell in the range of 1 to 10 µM. Still for that read-out and setting: then `O=c1c2cncc(N3CCC3)c2ccn1Cc1cn2cc(CNCC3CC(F)C3)ccc2n1` (stereo not shown) [Compound 89, 5-(azetidin-1-yl)-2-((6-((((3-fluorocyclobutyl)methyl)-amino)methyl)imidazo[1,2-a]pyridin-2-yl)methyl)-2,7-naphthyridin-1(2H)-one], with 1 to 10 µM; and `CCNc1ccc2ccc(-c3ccc(Cn4ccc5c(-c6ccccc6)cncc5c4=O)cc3)cc2n1` [Compound 93, 2-(4-(2-(ethylamino)quinolin-7-yl)benzyl)-5-phenyl-2,7-naphthyridin-1(2H)-one], with 1 to 10 µM.

For the origin of these results see patent US20250059207A1, “6,6-FUSED HETEROCYCLIC COMPOUNDS AS METTL3 INHIBITORS” (858 Therapeutics, Inc., priority 2021, published 2025).
